In paper PMC12830821 (Communications Biology, 2025):

What was measured:
Format in all cases: cell-based
human TRPM8 (hTRPM8) [1] = target: T1, human TRPM8 (hTRPM8) (Homo sapiens, UniProt Q7Z2W7); test: calcium imaging
rat TRPM8 (rTRPM8) [2] = target: T2, rat TRPM8 (rTRPM8) (Rattus norvegicus, UniProt Q8R455); test: calcium imaging
chicken TRPM8 (cTRPM8) = chicken TRPM8 (cTRPM8) (Gallus gallus, UniProt A0AA95FIJ1)
human TRPM8 (hTRPM8) [3] = target: T1, human TRPM8 (hTRPM8)
rat TRPM8 (rTRPM8) [4] = target: T2, rat TRPM8 (rTRPM8)

T1 sequence (Q7Z2W7 whole entry): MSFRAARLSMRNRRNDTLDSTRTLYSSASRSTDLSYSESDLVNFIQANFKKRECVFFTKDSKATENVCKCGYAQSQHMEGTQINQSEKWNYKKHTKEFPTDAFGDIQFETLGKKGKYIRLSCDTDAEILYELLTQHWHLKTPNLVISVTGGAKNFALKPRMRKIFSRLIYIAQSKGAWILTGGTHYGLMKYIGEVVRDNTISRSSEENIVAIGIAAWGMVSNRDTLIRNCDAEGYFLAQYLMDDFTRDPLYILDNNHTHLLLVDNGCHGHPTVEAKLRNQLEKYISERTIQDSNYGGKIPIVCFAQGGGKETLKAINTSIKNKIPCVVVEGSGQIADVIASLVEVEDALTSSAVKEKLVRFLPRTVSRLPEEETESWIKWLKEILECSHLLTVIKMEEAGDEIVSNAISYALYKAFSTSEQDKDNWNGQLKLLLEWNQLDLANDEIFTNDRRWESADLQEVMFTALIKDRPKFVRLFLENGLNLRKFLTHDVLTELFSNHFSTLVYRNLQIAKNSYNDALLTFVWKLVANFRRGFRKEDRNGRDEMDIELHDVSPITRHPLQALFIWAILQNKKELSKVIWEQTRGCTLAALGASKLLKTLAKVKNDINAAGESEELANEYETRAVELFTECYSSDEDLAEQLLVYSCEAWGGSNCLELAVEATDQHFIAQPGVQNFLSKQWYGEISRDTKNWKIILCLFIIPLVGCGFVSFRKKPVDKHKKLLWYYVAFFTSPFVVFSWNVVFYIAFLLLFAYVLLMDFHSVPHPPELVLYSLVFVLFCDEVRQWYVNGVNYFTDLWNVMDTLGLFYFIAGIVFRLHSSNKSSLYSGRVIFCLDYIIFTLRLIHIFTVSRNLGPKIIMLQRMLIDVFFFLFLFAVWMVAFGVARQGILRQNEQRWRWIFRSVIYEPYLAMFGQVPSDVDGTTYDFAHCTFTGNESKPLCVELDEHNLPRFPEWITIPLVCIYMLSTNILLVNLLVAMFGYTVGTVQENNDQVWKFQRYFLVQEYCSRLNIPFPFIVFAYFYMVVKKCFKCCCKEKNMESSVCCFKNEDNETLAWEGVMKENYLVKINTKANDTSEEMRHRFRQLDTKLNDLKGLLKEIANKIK
T2 sequence (Q8R455 whole entry): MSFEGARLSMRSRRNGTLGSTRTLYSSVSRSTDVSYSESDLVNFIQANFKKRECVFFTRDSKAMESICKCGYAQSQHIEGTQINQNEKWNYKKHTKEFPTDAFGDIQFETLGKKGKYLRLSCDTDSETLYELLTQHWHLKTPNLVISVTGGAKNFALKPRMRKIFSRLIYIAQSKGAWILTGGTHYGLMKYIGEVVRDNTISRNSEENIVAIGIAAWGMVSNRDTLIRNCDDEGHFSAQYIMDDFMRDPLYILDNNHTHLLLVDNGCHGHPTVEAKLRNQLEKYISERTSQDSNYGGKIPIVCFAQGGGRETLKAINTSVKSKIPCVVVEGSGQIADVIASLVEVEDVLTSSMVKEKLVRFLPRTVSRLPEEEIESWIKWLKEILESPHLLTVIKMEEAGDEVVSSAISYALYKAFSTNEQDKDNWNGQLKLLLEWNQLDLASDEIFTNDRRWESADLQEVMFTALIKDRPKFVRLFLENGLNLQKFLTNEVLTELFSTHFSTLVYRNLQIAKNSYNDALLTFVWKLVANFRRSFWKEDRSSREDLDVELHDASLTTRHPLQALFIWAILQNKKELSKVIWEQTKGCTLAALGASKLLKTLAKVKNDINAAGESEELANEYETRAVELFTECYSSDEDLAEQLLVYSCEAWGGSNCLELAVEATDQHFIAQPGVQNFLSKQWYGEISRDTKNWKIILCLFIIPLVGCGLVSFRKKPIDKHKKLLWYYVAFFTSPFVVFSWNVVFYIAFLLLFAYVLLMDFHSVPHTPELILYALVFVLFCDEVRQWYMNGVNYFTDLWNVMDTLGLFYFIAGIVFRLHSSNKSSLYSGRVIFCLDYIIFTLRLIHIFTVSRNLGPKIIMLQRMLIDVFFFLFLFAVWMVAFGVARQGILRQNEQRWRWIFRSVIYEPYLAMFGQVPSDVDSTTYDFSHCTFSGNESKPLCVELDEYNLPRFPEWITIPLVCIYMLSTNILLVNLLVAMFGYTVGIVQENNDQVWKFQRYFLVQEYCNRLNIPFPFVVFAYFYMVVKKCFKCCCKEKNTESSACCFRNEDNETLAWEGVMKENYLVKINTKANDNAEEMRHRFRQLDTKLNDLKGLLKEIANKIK
Sequence of chicken TRPM8 (cTRPM8) (A0AA95FIJ1 1-1111): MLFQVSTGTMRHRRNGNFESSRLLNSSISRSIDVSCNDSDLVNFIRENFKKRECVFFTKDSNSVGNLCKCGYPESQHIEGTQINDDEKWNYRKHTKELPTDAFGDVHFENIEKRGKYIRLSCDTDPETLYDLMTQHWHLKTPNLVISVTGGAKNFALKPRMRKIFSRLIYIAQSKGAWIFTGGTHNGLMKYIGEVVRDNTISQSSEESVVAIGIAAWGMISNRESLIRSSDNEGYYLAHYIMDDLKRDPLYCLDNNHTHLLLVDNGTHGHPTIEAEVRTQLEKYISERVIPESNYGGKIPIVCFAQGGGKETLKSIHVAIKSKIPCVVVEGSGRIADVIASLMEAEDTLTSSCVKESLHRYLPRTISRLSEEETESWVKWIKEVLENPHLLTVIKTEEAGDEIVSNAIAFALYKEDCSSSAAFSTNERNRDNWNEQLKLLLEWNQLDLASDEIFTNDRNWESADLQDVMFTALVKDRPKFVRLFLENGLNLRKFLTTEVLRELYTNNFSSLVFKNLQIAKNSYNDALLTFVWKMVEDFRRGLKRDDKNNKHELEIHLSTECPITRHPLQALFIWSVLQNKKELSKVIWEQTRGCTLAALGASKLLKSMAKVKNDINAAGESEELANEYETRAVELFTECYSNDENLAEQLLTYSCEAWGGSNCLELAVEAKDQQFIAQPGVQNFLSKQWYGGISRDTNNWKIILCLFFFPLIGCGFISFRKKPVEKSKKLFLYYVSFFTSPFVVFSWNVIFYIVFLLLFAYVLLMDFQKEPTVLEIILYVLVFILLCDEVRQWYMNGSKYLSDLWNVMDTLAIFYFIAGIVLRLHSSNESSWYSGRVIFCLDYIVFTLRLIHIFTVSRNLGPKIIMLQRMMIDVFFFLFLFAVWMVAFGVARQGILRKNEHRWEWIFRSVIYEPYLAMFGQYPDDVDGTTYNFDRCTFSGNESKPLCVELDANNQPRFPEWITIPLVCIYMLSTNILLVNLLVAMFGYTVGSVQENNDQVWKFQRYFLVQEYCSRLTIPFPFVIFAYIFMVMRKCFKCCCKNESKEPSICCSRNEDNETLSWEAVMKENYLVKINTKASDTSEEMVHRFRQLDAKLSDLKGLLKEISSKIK

Question: `O=C1NC(c2cccc([N+](=O)[O-])c2)=CCN1c1ccccc1O` [icilin, 1-(2-hydroxyphenyl)-4-(V3-nitrophenyl)-l,2,3,6-tetrahydropyrimidine-2-one] was tested. Which “calcium imaging (10 μM) in transfected HEK293T cells” value (human TRPM8 (hTRPM8) [1]) did it give?
Answer: As expected, icilin activated only the mammalian orthologs

Question: What about the “calcium imaging (10 μM) in transfected HEK293T cells” value (rat TRPM8 (rTRPM8) [2]) of the same molecule?
Answer: As expected, icilin activated only the mammalian orthologs

Question: How did the EC50 (chicken TRPM8 (cTRPM8)) turn out when `CCCCCCCP(=O)(C(C)C)C(C)C` [C-1, 1-di(propan-2-yl)phosphorylheptane] was run?
Answer: 250 nM

Question: What about the EC50 (human TRPM8 (hTRPM8) [3]) of the same molecule?
Answer: 2430 nM

Question: What about the EC50 (rat TRPM8 (rTRPM8) [4]) of the same molecule?
Answer: Rat TRPM8 showed intermediate EC50 values
